Data from ChEMBL document CHEMBL1201862, “PubChem BioAssay data set” (2004).
Blank lines part the entries; values can stand above or below the compound they belong to. Activity calls are given as the source filed them.

Experiments:
Aminopeptidase N = molecular target: T1, Aminopeptidase N (Plasmodium falciparum FcB1/Columbia, UniProt O96935); experiment: P. falciparum M1AAP inhibitors, biochemical, fluorogenic H-Leu-NHMec substrate, 1536-well (AID 1445); set-up: species or system Plasmodium falciparum 3D7, 3D7
T1 sequence (O96935 whole entry): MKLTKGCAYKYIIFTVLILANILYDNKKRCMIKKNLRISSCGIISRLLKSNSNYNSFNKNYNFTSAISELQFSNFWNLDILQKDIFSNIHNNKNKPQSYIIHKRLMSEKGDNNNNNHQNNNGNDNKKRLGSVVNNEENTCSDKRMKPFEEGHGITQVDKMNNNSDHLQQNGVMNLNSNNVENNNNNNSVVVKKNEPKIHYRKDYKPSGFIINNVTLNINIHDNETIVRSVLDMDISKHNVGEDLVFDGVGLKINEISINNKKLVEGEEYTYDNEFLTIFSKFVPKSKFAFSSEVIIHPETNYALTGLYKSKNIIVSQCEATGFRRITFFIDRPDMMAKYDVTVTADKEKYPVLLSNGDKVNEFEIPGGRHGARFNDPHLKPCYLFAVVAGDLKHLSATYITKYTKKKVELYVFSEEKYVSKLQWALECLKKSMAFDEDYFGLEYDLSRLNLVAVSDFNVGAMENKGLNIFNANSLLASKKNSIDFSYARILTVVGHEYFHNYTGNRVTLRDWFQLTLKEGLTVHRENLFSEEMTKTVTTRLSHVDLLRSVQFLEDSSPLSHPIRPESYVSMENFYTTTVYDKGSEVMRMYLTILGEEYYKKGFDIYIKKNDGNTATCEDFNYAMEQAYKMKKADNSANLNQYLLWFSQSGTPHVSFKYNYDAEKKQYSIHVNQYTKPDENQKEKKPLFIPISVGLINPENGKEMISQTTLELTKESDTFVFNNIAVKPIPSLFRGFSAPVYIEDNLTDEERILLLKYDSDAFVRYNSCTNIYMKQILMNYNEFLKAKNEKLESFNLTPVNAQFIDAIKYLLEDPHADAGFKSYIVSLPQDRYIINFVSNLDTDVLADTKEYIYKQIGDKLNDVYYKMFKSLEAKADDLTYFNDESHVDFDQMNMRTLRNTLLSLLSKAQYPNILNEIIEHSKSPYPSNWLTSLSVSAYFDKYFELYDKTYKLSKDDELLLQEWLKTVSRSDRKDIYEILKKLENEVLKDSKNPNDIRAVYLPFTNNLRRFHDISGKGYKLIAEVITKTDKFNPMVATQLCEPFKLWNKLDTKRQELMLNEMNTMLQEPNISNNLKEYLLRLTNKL

Keap1/Nrf2 = Keap1/Nrf2 (Homo sapiens, UniProt Q14145); experiment: Keap1-Nrf2 protein-protein interaction inhibitors, dose response, biochemical, fluorescence polarization, cherry-picked samples (AID 588683)
Sequence of Keap1/Nrf2 (Q16236 whole entry): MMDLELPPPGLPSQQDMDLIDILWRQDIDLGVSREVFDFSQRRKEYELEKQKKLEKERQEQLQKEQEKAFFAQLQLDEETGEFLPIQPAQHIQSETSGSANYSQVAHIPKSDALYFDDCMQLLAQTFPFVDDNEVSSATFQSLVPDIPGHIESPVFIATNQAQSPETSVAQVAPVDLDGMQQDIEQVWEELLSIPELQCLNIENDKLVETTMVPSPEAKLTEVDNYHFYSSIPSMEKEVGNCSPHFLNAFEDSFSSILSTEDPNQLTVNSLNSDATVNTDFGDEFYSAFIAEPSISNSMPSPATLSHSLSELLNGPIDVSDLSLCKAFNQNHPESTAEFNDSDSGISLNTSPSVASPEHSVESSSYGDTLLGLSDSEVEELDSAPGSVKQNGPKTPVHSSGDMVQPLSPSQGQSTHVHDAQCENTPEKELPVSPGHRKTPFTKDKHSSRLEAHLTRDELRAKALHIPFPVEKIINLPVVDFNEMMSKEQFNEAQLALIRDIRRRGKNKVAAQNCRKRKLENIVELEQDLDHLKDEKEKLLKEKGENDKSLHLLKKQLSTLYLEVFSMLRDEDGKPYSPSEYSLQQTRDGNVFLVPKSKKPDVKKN
Sequence of Keap1/Nrf2 (Q14145 whole entry): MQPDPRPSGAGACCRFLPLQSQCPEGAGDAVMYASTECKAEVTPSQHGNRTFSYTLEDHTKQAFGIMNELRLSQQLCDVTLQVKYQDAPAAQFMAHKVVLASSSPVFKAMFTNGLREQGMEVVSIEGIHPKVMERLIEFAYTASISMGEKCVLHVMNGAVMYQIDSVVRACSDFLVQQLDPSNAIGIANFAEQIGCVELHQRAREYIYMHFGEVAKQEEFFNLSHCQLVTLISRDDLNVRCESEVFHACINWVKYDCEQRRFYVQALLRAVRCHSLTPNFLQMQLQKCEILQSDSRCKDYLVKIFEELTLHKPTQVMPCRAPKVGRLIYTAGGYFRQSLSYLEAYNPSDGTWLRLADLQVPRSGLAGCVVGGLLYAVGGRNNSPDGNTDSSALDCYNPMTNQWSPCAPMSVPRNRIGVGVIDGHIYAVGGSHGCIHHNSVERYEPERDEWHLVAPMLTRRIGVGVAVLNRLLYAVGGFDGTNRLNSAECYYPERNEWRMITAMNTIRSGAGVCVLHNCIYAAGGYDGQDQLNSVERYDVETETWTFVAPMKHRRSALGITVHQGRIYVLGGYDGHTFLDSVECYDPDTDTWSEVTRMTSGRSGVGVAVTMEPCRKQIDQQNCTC

[1] = molecular target: T2, Tyrosine-protein phosphatase non-receptor type 7 (Homo sapiens, UniProt P35236); type: functional
T2 sequence (P35236 whole entry): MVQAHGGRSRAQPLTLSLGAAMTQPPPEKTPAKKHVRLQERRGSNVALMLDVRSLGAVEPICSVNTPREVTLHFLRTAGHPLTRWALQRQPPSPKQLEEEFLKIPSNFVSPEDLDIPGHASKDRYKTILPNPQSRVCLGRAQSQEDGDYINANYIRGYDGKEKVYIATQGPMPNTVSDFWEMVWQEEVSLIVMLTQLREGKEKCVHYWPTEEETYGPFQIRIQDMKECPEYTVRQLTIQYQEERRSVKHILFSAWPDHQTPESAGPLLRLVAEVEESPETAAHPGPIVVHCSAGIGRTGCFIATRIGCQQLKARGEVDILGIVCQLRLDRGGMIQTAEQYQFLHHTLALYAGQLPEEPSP

Troponin, cardiac muscle = Troponin, cardiac muscle (Homo sapiens, UniProt P19429+P45379+P63316); experiment: inhibitors of cardiac thin filament calcium sensitivity, dose response, biochemical, fluorescence, cardiac regulated thin filaments, triplicate IC50 (AID 504742); type: protein-complex assay
[2] = molecular target: T3, Sentrin-specific protease 8 (Homo sapiens, UniProt Q96LD8); type: functional
T3 sequence (Q96LD8 whole entry): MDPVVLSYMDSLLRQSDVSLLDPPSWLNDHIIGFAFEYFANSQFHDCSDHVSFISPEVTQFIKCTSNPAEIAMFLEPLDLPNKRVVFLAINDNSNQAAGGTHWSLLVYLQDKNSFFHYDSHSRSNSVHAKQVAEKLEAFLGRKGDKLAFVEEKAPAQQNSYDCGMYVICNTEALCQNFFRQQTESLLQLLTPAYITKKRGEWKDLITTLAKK

[3] = molecular target: T3, Sentrin-specific protease 8; type: functional; remark: listed apart in the source
[4] = Counterscreen for AddAB inhibitors: absorbance-based bacterial cell-based high throughput dose response assay for inhibitors of bacterial viability. [Related pubchem assays (depositor defined):AID435030, AID449728, AID449731, AID488942, AID488955, AID488956]; type: functional
[5] = molecular target: Ribosomal protein S6 kinase alpha-3 (Homo sapiens, UniProt P51812); type: functional;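 note: measured within a kinome-wide profiling panel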
Sequence of Ribosomal protein S6 kinase alpha-3 (P51812 whole entry): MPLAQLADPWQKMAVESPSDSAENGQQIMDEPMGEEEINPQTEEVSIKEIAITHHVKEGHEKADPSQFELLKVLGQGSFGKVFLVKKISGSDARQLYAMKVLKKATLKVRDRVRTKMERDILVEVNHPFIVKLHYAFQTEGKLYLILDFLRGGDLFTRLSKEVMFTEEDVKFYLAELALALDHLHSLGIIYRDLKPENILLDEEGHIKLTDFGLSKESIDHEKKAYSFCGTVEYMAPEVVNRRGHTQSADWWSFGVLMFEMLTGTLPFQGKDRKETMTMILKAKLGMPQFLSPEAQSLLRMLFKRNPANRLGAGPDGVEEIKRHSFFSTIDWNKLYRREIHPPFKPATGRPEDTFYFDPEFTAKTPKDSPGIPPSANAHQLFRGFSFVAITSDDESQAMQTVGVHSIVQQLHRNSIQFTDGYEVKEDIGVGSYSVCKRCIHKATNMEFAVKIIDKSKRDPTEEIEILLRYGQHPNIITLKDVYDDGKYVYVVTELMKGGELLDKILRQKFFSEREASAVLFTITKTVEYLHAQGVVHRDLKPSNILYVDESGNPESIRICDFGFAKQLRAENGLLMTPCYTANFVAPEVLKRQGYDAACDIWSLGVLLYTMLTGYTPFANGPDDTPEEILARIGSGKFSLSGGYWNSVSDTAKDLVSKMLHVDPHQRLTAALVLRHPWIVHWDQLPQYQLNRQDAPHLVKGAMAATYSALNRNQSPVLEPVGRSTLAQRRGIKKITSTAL

[6] = molecular target: Serine/threonine-protein kinase PAK 1 (Homo sapiens, UniProt Q13153); type: functional
[7] = molecular target: Non-receptor tyrosine-protein kinase TYK2 (Homo sapiens, UniProt P29597); type: functional
[8] = molecular target: Cell division cycle 7-related protein kinase (Homo sapiens, UniProt O00311); type: functional;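 note: value obtained from a kinome-wide kinase panel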
Sequence of Cell division cycle 7-related protein kinase (O00311 whole entry): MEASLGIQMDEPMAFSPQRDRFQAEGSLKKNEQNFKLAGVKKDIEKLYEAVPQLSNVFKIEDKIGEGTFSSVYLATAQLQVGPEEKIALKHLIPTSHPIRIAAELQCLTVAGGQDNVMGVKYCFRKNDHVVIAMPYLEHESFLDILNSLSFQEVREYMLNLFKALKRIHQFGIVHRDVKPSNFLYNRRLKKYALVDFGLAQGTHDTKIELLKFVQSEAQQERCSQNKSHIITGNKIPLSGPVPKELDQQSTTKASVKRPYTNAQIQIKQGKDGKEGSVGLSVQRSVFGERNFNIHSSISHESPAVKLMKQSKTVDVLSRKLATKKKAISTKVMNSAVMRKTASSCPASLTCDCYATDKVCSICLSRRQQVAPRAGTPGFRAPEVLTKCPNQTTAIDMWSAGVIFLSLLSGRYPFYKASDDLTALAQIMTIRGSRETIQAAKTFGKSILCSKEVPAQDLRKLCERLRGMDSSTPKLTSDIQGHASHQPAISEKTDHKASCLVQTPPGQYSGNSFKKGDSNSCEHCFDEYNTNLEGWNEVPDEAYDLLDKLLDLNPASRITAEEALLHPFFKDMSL

[9] = molecular target: 5'-AMP-activated protein kinase catalytic subunit alpha-1 (Homo sapiens, UniProt Q13131); type: functional
[10] = molecular target: Tyrosine-protein kinase Srms (Homo sapiens, UniProt Q9H3Y6); type: functional;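 note: SRMS measured as one member of a kinome-wide kinase profiling panel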
Sequence of Tyrosine-protein kinase Srms (Q9H3Y6 whole entry): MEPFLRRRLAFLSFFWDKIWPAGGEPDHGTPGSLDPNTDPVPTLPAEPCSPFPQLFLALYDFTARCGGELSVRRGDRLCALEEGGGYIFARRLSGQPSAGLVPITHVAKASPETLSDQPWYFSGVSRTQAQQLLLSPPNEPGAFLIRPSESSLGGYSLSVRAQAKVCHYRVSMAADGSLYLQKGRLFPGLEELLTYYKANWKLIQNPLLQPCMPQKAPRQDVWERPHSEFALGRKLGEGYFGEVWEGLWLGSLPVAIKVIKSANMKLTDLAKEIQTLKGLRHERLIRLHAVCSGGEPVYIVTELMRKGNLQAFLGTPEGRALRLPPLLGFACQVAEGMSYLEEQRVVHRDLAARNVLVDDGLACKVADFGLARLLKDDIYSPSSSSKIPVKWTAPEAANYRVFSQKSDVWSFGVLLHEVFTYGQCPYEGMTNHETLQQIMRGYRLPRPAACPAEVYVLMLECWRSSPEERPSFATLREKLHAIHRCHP

[11] = molecular target: Tyrosine-protein kinase SYK (Homo sapiens, UniProt P43405); type: functional
[12] = molecular target: Tyrosine-protein kinase ABL1 (Homo sapiens, UniProt P00519); type: functional
[13] = molecular target: Serine/threonine-protein kinase pim-3 (Homo sapiens, UniProt Q86V86); type: functional;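 note: value obtained as one member of a broad kinase panel profiling effort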
[14] = molecular target: Serine/threonine-protein kinase pim-1 (Homo sapiens, UniProt P11309); type: functional
Sequence of Serine/threonine-protein kinase pim-1 (P11309 whole entry): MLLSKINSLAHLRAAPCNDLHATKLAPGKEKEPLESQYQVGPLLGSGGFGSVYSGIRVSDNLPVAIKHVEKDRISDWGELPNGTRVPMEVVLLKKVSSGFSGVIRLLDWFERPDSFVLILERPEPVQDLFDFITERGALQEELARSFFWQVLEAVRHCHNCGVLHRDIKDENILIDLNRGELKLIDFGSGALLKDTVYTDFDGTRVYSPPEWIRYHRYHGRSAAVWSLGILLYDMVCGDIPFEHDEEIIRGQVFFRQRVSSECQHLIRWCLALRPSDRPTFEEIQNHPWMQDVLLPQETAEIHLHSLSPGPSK

[15] = molecular target: Cyclin-dependent kinase 1 (Homo sapiens, UniProt P06493); type: functional;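 note: Kinome-wide panel profiling, with the target listed as panel member CDC2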
Sequence of Cyclin-dependent kinase 1 (P06493 whole entry): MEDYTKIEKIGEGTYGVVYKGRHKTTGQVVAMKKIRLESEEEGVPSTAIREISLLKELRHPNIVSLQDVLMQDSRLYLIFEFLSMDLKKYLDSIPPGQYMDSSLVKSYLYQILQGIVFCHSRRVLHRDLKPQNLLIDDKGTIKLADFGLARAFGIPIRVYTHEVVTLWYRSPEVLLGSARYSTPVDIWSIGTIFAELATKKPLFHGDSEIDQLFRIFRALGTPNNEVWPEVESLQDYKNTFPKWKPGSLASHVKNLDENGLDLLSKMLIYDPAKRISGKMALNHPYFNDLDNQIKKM

[16] = molecular target: Mitogen-activated protein kinase kinase kinase 20 (Homo sapiens, UniProt Q9NYL2); type: functional
Sequence of Mitogen-activated protein kinase kinase kinase 20 (Q9NYL2 whole entry): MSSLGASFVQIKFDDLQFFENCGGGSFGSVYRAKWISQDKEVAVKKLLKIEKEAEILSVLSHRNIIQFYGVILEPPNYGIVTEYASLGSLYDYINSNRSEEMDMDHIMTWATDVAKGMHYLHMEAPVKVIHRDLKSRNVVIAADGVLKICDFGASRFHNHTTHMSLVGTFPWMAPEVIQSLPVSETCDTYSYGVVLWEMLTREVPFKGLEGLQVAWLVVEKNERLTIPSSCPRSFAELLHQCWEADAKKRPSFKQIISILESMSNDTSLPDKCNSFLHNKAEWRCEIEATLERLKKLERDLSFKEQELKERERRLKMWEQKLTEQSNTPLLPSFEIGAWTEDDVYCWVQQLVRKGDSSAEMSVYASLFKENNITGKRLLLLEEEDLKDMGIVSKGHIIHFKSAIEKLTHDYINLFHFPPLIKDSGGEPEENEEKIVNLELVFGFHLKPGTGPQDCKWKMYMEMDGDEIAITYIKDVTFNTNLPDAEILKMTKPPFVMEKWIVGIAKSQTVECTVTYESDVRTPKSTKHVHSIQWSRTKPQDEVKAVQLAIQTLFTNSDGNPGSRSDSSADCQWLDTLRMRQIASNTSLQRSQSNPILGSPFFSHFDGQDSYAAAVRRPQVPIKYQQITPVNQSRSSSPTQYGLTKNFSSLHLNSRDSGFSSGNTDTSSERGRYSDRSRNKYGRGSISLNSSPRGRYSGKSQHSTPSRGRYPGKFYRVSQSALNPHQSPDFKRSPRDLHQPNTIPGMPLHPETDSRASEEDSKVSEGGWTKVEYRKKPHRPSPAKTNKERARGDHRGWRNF

IC50 (Aminopeptidase N): 17400 nM (active)
SMILES: O=C1N=C(NS(=O)(=O)Cc2ccccc2)S/C1=C1\C(=O)Nc2ccccc21

SMILES: O=C(O)C1Nc2c(O)cc(Cl)c([N+](=O)[O-])c2C2C=CCC12 (stereo unspecified)
AC50 (Keap1/Nrf2): > 52000 nM (inactive)
IC50 [1]: 3840 nM (active)
IC50 (Troponin, cardiac muscle): 11000 nM (inactive)

SMILES: O=C(CCc1ccccc1)NNc1cc(N2CCCCC2)nc(N2CCCCC2)n1
IC50 [2]: 605 nM (active)
IC50 [3]: 1010 nM (active)

SMILES: Oc1ccc(N=Nc2c(O)ccc3ccccc23)cc1
IC50 [4]: > 118000 nM (inactive)

Ki [5]: 15.8 nM (active)
Ki [6]: 631 nM (active)
Ki [7]: > 2000 nM (inactive)
Ki [8]: 0.794 nM (active)
pKi [8]: 9.1
Ki [9]: 10 nM (active)
Ki [10]: > 1580 nM (inactive)
Ki [11]: > 1580 nM (inactive)
Ki [12]: > 631 nM (inactive)
Ki [13]: 10 nM (active)
Ki [14]: 5.01 nM (active)
Ki [15]: 39.8 nM (active)
pKi [15]: 7.4
Ki [16]: 7940 nM (active)
SMILES: Cc1n[nH]c2ccc(-c3cncc(OCC(N)Cc4cccc(Cl)c4)c3)cc12 (stereo unspecified)
